Assay results as given in article PMC9103184, “Kunitz-Type Peptides from Sea Anemones Protect Neuronal Cells against Parkinson’s Disease Inductors via Inhibition of ROS Production and ATP-Induced P2X7 Receptor Activation” (International Journal of Molecular Sciences, 2022).
Bridge positions count the residues as written; N and C are the ends. Ends that are not written are not given here.

Experiments:
6-OHDA-treated cells = conditions: 6-OHDA model; cited from earlier work
TRPV1 = conditions: cited from earlier work
trypsin [1] = molecular target: T1, trypsin (Bos taurus, UniProt P00760); experiment: Trypsin inhibition (BAPNA substrate, Dixon's method); assay type: biochemical; conditions: BAPNA 0.6 and 1.2 mM, trypsin 208 nM, peptide 0–20 μM, three parallel experiments, read-out: trypsin inhibitory constant (Ki)
T1 sequence (P00760 24-246): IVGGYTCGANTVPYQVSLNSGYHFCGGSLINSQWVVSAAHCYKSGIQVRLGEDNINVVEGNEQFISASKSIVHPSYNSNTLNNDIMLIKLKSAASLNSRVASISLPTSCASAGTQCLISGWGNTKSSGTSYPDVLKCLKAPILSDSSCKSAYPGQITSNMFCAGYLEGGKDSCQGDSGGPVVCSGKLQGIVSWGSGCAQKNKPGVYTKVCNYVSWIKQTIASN
Protocol: The trypsin-inhibitory activity of HCIQ1c9 was estimated according to the standard procedure using N-α-benzoyl-D,L-arginine p-nitroanilide (BAPNA) (Sigma-Aldrich, St. Louis, MO, USA) as a substrate. The trypsin inhibition constant was determined using Dyxon’s method using substrate concentrations of 0.6 and 1.2 mM. The trypsin concentration was 208 nM. The range of peptide concentrations was 0–20 μM. The constant was calculated based on the results of three parallel experiments. Computational error limits were in the range of 0.1–0.3%.

trypsin [2] = molecular target: T1, trypsin; experiment: Residual trypsin-inhibitory activity after heating; assay type: biochemical; conditions: heating in the range from 60 °C to 100 °C; 7 μM peptide, 1.2 mM BAPNA, 37 °C, three parallel experiments
Protocol: Figure 6 The effects of temperature on the trypsin-inhibitory activity levels of peptides. Peptides were incubated at the temperatures for 30 min and their residual activities were measured.
The temperature influence on the activity levels of peptides was assessed by measuring their residual inhibitory activity levels. After preincubation at temperatures ranging from 25 to 100 °C for 25 min, the peptide solutions were added to trypsin solution and the reaction mixtures were incubated for 10 min at 37 °C, then 1.2 mM BAPNA was added, followed by incubation at 37 °C for 30 min. The final concentration of the peptides was 7 μM. Substrate hydrolysis was measured at 410 nm. The residual activity was calculated based on the results of three parallel experiments according to the following equation [60]:% = (1 − residual enzyme activity/enzyme activity without inhibitor) × 100

HCRG21: Kunitz-type peptide from H. crispa, P0DL86; blocker of TRPV1 (RGICSEPKVVGPCTAYFRRFYFDSETGKCTPFIYGGCEGNGNNFETLRACRAICRA; UniProt P0DL86 1-56, looked up)
decrease in ROS production below the control (6-OHDA-treated cells): up to 87% | activity on TRPV1 (TRPV1): blocker of TRPV1

IQGNICSEPKKVGRCRRSFPRFYFDSETGKCTPFIYGGCGGNGNNFETLHACRAICRA (disulfide 6-56, 15-39, 31-52) [HCIQ1c9]
Ki (trypsin [1]): 630 nM | decrease in trypsin-inhibitory activity after heating (trypsin [2]): 30–70%
